Measurements as given in PMC10324308, “Biodegradation of Amphipathic Fluorinated Peptides Reveals a New Bacterial Defluorinating Activity and a New Source of Natural Organofluorine Compounds” (Environmental Science & Technology, 2023).
Where a SMILES comes first, the peptide text is derived from it. [ ]: non-standard residue; d: D form. Abu(4,4,4-F3) = N[C@@H](CC(F)(F)F)C(=O)O; Abu(4,4-F2) = N[C@@H](CC(F)F)C(=O)O; 4Abz = Nc1ccc(C(=O)O)cc1; Abu = CC[C@H](N)C(=O)O

Experiments:
β-trypsin (pancreas) = assay: Peptide digestion assay with β-trypsin; assay type: in vitro ADME; details: after 2 h; 500 μM peptide, trypsin 0.075 μM, 50 mM bis-tris propane + 20 mM CaCl2, pH 8, 37 °C, 300 rpm; HPLC (DAD-280 nm); triplicates
Method: (§1) Freeze-dried peptides AbuK16, MfeGlyK16, DfeGlyK16, and TfeGlyK16 were dissolved in 100 μL of buffer (50 mM bis-tris propane + 20 mM CaCl2, pH 8) to a final concentration of 500 μM. The peptides were incubated with different proteolytic enzymes (10 μL in buffer): trypsin (0.075 μM), elastase (0.45 μM), proteinase K (0.075 μM), and bromelain (4.5 μM). The experiments were incubated at either 37 °C (trypsin and proteinase K) or 30 °C (elastase and bromelain) in a Thriller thermoshaker-incubator (VWR International, Radnor, PA, USA) with shaking at 300 rpm. Aliquots (15 μL) were taken at fixed time points and quenched with 90 μL of a solution of 30% acetic acid in water containing 133 μM Ac-[4]Abz-Gly-OH as a reference. Peptide degradation was monitored by high-performance liquid chromatography (HPLC) using a Hitachi Primaide UV-HPLC system (VWR/Hitachi, Darmstadt, Germany). A Kinetex RP-C18 ([…], 100 Å, 250 × 4.6 mm, Phenomenex, USA) column and a SecurityGuard Cartridge Kit equipped with a C18 cartridge (4 × 3.0 mm, Phenomenex, USA) as a pre-column was used. The mobile phases employed were 0.1% aqueous […] (TFA) (solvent A) and acetonitrile + 0.1% TFA (solvent B). The solvent conditions for analysis were as follows: 0–5 min, 5% B; 5–20 min, 5–90% B; 20–23 min, 90–100% B; 23–25 min, 100% B; 25–27 min, 100–5% B; and 27–30 min, 5% B. In all cases, the peaks corresponding to each peptide sample (full-length peptides) and the reference sample were integrated and used to determine the amount of the substrate still present in solution. The content of starting material after 5 min was termed as absolute amount for simplicity. All experiments were performed in triplicates, and error bars were obtained as standard deviations of measurements.
(§2) Figure 2 Proteolytic digestion of AbuK16, MfeGlyK16, DfeGlyK16, and TfeGlyK16 by the serine proteases β-trypsin, elastase, proteinase K, and bromelain (pineapple stem) in 50 mM bis-tris propane + 20 mM CaCl2, pH 8, at 37 °C (β-trypsin and proteinase K) or 30 °C (elastase and bromelain). Real-time detection of peptide proteolysis and calculation of remaining peptide amounts were accomplished by HPLC analysis (DAD-280 nm).

[1] = target: T1, bromelain (pineapple stem) (Ananas comosus, UniProt P14518); assay: Peptide digestion assay with bromelain; assay type: in vitro ADME; details: 500 μM peptide, bromelain 4.5 μM, 50 mM bis-tris propane + 20 mM CaCl2, pH 8, 30 °C, HPLC (DAD-280 nm); for digestion by bromelain: 300 rpm, triplicates
T1 construct: purchased Sigma-Aldrich (Steinheim, Germany); host or cells: pineapple stem
T1 sequence (P14518 1-212): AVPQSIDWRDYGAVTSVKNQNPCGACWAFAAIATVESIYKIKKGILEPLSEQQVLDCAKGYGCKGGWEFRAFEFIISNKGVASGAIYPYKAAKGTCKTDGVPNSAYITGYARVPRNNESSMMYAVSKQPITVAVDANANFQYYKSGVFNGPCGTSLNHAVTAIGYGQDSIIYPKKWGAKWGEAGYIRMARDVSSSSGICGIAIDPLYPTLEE
Method: as §1, §2

elastase (pancreas) = target: T2, elastase (pancreas) (Sus scrofa, UniProt P00772); assay: Peptide digestion assay with elastase; assay type: in vitro ADME; details: after 4 h; 500 μM peptide, elastase 0.45 μM, 50 mM bis-tris propane + 20 mM CaCl2, pH 8, 30 °C, 300 rpm; HPLC (DAD-280 nm); triplicates
T2 construct: purchased Sigma-Aldrich (Steinheim, Germany); host or cells: pancreas
Method: as §1, with “The solvent conditions for analysis were as follows: 0–5 min, 5% B; 5–20 min, 5–90% B; 20–23 min, 90–100% B; 23–25 min, 100% B; 25–27 min, 100–5% B; and 27–30 min, 5% B. In all cases, the peaks corresponding to each peptide sample (full-length peptides) and the reference sample were integrated and used to determine the amount of the substrate still present in solution. The content of starting material after 5 min was termed as absolute amount for simplicity. All experiments were performed in triplicates, and error bars were obtained as standard deviations of measurements.” left out

proteinase K = target: T3, proteinase K (Parengyodontium album, UniProt P06873); assay: Peptide digestion assay with proteinase K; assay type: in vitro ADME, Tritirachium album; details: 500 μM peptide, proteinase K 0.075 μM, 50 mM bis-tris propane + 20 mM CaCl2, pH 8, 37 °C, HPLC (DAD-280 nm), triplicates; for proteolytic stability against proteinase K: after 4 h, 300 rpm
T3 construct: purchased Sigma-Aldrich (Steinheim, Germany)
Method: as §1
Figure 2 Proteolytic digestion of AbuK16, MfeGlyK16, DfeGlyK16, and TfeGlyK16 by the serine proteases β-trypsin, elastase, proteinase K, and bromelain (pineapple stem) in 50 mM bis-tris propane + 20 mM CaCl2, pH 8, at 37 °C (β-trypsin and proteinase K) or 30 °C (elastase and bromelain). […]

T3 sequence (P06873 106-384): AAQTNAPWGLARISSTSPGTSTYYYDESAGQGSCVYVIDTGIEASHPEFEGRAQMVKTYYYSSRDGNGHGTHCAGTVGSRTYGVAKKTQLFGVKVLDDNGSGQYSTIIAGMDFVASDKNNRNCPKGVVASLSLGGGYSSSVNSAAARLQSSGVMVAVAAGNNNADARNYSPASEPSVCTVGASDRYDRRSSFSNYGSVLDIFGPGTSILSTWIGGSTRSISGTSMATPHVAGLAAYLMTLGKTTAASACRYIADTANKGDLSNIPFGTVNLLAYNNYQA
T2 sequence (P00772 27-266): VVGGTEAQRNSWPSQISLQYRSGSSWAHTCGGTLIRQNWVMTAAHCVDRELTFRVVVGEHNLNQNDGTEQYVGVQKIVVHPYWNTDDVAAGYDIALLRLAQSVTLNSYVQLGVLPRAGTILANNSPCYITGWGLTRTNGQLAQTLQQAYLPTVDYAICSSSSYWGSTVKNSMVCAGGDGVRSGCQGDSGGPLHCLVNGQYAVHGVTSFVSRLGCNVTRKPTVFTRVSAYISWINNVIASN

SMILES	remaining full-length peptide after digestion by β-trypsin (β-trypsin (pancreas))	digestion by bromelain [1]	remaining full-length peptide after digestion by elastase (elastase (pancreas))	proteolytic stability against proteinase K (proteinase K)	digestion by proteinase K (proteinase K; within 24 h)	remaining peptide after digestion by bromelain ([1]; after 3 days incubation)
CC[C@H](NC(C)=O)C(=O)N[C@@H](CCCCN)C(=O)N[C@@H](CC)C(=O)N[C@@H](CCCCN)C(=O)N[C@@H](CC)C(=O)N[C@@H](CCCCN)C(=O)N[C@@H](CC)C(=O)N[C@@H](CCCCN)C(=O)N[C@@H](CC)C(=O)N[C@@H](CCCCN)C(=O)N[C@@H](CC)C(=O)N[C@@H](CCCCN)C(=O)N[C@@H](CC)C(=O)N[C@@H](CCCCN)C(=O)N[C@@H](CC)C(=O)N[C@@H](CCCCN)C(=O)Nc1ccc(C(N)=O)cc1 [AbuK16, Ac-(Abu-Lys)8-[4]Abz-NH2] (Ac-[Abu]K[Abu]K[Abu]K[Abu]K[Abu]K[Abu]K[Abu]K[Abu]K[4Abz]-NH2)	comparably higher amounts of peptide were detected	digested				
CC(=O)N[C@@H](CC(F)F)C(=O)N[C@@H](CCCCN)C(=O)N[C@@H](CC(F)F)C(=O)N[C@@H](CCCCN)C(=O)N[C@@H](CC(F)F)C(=O)N[C@@H](CCCCN)C(=O)N[C@@H](CC(F)F)C(=O)N[C@@H](CCCCN)C(=O)N[C@@H](CC(F)F)C(=O)N[C@@H](CCCCN)C(=O)N[C@@H](CC(F)F)C(=O)N[C@@H](CCCCN)C(=O)N[C@@H](CC(F)F)C(=O)N[C@@H](CCCCN)C(=O)N[C@@H](CC(F)F)C(=O)N[C@@H](CCCCN)C(=O)Nc1ccc(C(N)=O)cc1 [DfeGlyK16, Ac-(DfeGly-Lys)8-[4]Abz-NH2] (Ac-[Abu(4,4-F2)]K[Abu(4,4-F2)]K[Abu(4,4-F2)]K[Abu(4,4-F2)]K[Abu(4,4-F2)]K[Abu(4,4-F2)]K[Abu(4,4-F2)]K[Abu(4,4-F2)]K[4Abz]-NH2)	mostly consumed	digested	lower amounts of DfeGlyK16 and TfeGlyK16 detected than AbuK16 and MfeGlyK16			
CC(=O)N[C@@H](CCF)C(=O)N[C@@H](CCCCN)C(=O)N[C@@H](CCF)C(=O)N[C@@H](CCCCN)C(=O)N[C@@H](CCF)C(=O)N[C@@H](CCCCN)C(=O)N[C@@H](CCF)C(=O)N[C@@H](CCCCN)C(=O)N[C@@H](CCF)C(=O)N[C@@H](CCCCN)C(=O)N[C@@H](CCF)C(=O)N[C@@H](CCCCN)C(=O)N[C@@H](CCF)C(=O)N[C@@H](CCCCN)C(=O)N[C@@H](CCF)C(=O)N[C@@H](CCCCN)C(=O)Nc1ccc(C(N)=O)cc1 [MfeGlyK16, Ac-(MfeGly-Lys)8-[4]Abz-NH2]	comparably higher amounts of peptide were detected	digested		higher proteolytic stability of MfeGlyK16 than that for AbuK16 and DfeGlyK16		
CC(=O)N[C@@H](CC(F)(F)F)C(=O)N[C@@H](CCCCN)C(=O)N[C@@H](CC(F)(F)F)C(=O)N[C@@H](CCCCN)C(=O)N[C@@H](CC(F)(F)F)C(=O)N[C@@H](CCCCN)C(=O)N[C@@H](CC(F)(F)F)C(=O)N[C@@H](CCCCN)C(=O)N[C@@H](CC(F)(F)F)C(=O)N[C@@H](CCCCN)C(=O)N[C@@H](CC(F)(F)F)C(=O)N[C@@H](CCCCN)C(=O)N[C@@H](CC(F)(F)F)C(=O)N[C@@H](CCCCN)C(=O)N[C@@H](CC(F)(F)F)C(=O)N[C@@H](CCCCN)C(=O)Nc1ccc(C(N)=O)cc1 [TfeGlyK16, Ac-(TfeGly-Lys)8-[4]Abz-NH2] (Ac-[Abu(4,4,4-F3)]K[Abu(4,4,4-F3)]K[Abu(4,4,4-F3)]K[Abu(4,4,4-F3)]K[Abu(4,4,4-F3)]K[Abu(4,4,4-F3)]K[Abu(4,4,4-F3)]K[Abu(4,4,4-F3)]K[4Abz]-NH2)	mostly consumed	resistant to this protease	lower amounts of DfeGlyK16 and TfeGlyK16 detected than AbuK16 and MfeGlyK16	pronounced stability	largely digested	noticeable amounts of this peptide were still present
